Bridge positions count the residues as written; N and C are the ends. Square brackets hold non-standard residues; d marks the D form. Peptide text beside a SMILES is read from it. I, II: the chains in the order shown. hArg = N=C(N)NCCCC[C@H](N)C(=O)O; Ac5c = NC1(C(=O)O)CCCC1; Aib = CC(C)(N)C(=O)O
Target: T1, PTH receptor 1 (Mus musculus, UniProt P41593)
T1 construct: host or cells: MC3T3-E1 subclone 4
T1 sequence (P41593 27-591): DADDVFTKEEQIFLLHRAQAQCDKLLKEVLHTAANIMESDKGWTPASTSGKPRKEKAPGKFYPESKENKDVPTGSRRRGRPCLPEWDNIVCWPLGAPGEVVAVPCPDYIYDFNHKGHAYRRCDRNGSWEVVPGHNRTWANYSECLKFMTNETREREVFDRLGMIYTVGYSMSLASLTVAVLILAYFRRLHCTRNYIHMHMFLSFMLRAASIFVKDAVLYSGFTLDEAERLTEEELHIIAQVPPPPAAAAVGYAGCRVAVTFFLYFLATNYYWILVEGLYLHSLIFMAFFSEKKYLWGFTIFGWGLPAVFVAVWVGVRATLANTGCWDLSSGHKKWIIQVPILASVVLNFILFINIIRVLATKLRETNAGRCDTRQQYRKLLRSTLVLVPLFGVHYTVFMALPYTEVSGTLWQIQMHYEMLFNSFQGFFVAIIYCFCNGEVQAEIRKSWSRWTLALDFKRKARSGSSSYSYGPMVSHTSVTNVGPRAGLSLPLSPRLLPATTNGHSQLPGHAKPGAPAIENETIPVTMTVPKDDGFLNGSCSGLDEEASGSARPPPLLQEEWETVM
Assay: MC3T3-E1 cAMP efficacy assay
Type: cell-based, murine
Details: MC3T3-E1 cells

For `CC[C@H](C)[C@H](NC(=O)[C@H](CCC(=O)O)NC(=O)C(C)(C)NC(=O)[C@@H](NC(=O)C1(N)CCCC1)C(C)C)C(=O)N[C@@H](CCC(N)=O)C(=O)N[C@@H](CC(C)C)C(=O)N[C@@H](CCSC)C(=O)N[C@@H](Cc1c[nH]cn1)C(=O)N[C@@H](CCC(N)=O)C(=O)N[C@@H](CCCCNC(=N)N)C(=O)N[C@@H](C)C(=O)N[C@H]1CCCCNC(=O)C[C@@H](C(N)=O)NC(=O)[C@H](CC(C)C)NC(=O)[C@H](Cc2c[nH]c3ccccc23)NC(=O)[C@@H](NC(=O)[C@H](C)NC(=O)[C@H](CCCCNC(=N)N)NC(=O)[C@H](CCC(N)=O)NC(=O)[C@H](Cc2c[nH]cn2)NC(=O)[C@H](CCSC)NC(=O)[C@H](CC(C)C)NC(=O)[C@H](CCC(N)=O)NC(=O)[C@@H](NC(=O)[C@H](CCC(=O)O)NC(=O)C(C)(C)NC(=O)[C@@H](NC(=O)C2(N)CCCC2)C(C)C)[C@@H](C)CC)CCCCNC(=O)C[C@@H](C(N)=O)NC(=O)[C@H](CC(C)C)NC(=O)[C@H](Cc2c[nH]c3ccccc23)NC1=O` [SEQ ID NO: 33, (H-Ac5c-Val-Aib-Glu-Ile-Gln-Leu-Met-His-Gln-Har-Ala-Lys( )-Trp-Leu-Asp( )-NH2)2] (I: H-[Ac5c]V[Aib]EIQLMHQ[hArg]AKWLD-NH2 / II: H-[Ac5c]V[Aib]EIQLMHQ[hArg]AKWLD-NH2; amide I:13-II:16, I:16-II:13 (inferred)), the “agonist strength relative to SEQ ID NO: 30” value (cAMP) was “eight-fold stronger agonist” and the “Emax ± SEM [pmol/well]” value (maximally inducible cAMP) was 5.0 ± 0.3 pmol/well.
